{"source": "patent EP4656049A1", "about": "“A METHOD OF CONTROLLING INSECT PESTS” (UPL Mauritius Limited, priority 2024, dated 2025)", "assay_type_in_all_cases": "in vivo", "key": {"Bactrocera oleae adults": {"system": "Bactrocera oleae adults", "test": "Lab trial in plastic containers, flies dipped in test solution", "conditions": "75 ml/L", "protocol": "Composition used for insect control: Suspension of Beauveria bassiana CNCM I-2960 spores prepared in Tween 80. Total CFU count = 9.5 x 10^7 CFU/ml Trial method: Lab trial in plastic containers, 5 replicates, 10 adults /replicate Flies dipped in test solution Incubation in climatic room at +25°C Assessment of mortality percentage of Bactrocera oleae adults at 10DAT. DAT = Days after Treatment Comparative control: Lambda-cyhalothrin Table 7: Efficacy of Beauveria bassiana CNCM I-2960 on Bactrocera oleae adults"}, "[1]": {"system": "Empoasca vitis L2/L3 larvae", "test": "Lab trial in Petri dishes, leaf dipped in suspension", "conditions": "75 ml/L", "protocol": "Composition used for insect control: Suspension of Beauveria bassiana CNCM I-2961 spores prepared in Tween 80. Total CFU count = 1.0 x 10^8 CFU/ml Trial method: Lab trial in Petri dishes, 10 replicates, 5 L2&L3 larvae /replicate Leaf dipped in prepared suspension of treatment, let dried and set up on agar agar Incubation in climatic room at +20°C, dead adults removed and incubated for sporulation on cadaver: assessment at 18 DAA Assessment of mortality percentage of Empoasca vitis L2/L3 larvae at 7 DAA, 10DAA. Comparative control: Lambda cyhalothrin Table 5: Efficacy of Beauveria bassiana CNCM I-2961 on Empoasca vitis L2/L3 larvae"}, "Empoasca vitis adults": {"system": "Empoasca vitis adults", "test": "Lab trial in Petri dishes, leaf dipped in suspension", "conditions": "75 ml/L", "protocol": "Composition used for insect control: Suspension of Beauveria bassiana CNCM I-2960 spores prepared in Tween 80. Total CFU count = 8.2 x 10^7 CFU/ml Suspension of Beauveria bassiana CNCM I-2961 spores prepared in Tween 80. Total CFU count = 1.1 x 10^8 CFU/ml Trial method: Lab trial in Petri dishes, 5 replicates, 10 nymphs/replicate Leaf dipped in prepared suspension of treatment, let dried and set up on agar agar Incubation in climatic room at +20 C, dead adults removed and incubated for sporulation on cadaver: assessment at 15 DAA Assessment of mortality percentage of Empoasca vitis adults at 7 DAA, 11DAA. Comparative control: Lambda cyhalothrin Table 4: Efficacy of Beauveria bassiana CNCM I-2961 and Beauveria bassiana CNCM I-2960 on Empoasca vitis adults"}, "Halyomorpha halys eggs": {"system": "Halyomorpha halys eggs", "test": "Lab trial in Petri dishes, suspension sprayed on eggs", "conditions": "0.5 ml/L", "protocol": "Composition used for insect control: Suspension of Beauveria bassiana CNCM I-2960 spores prepared in Tween 80. Total CFU count = 1 x 10^6 CFU/ml, 1 x 10^7 CFU/ml and 1 x 10^8 CFU/ml Suspension of Beauveria bassiana CNCM I-2961 spores prepared in Tween 80. Total CFU count = 1 x 10^6 CFU/ml, 1 x 10^7 CFU/ml and 1 x 10^8 CFU/ml Trial method: Lab trial in Petri dishes, 5 replicates, 10 nymphs/replicate Suspension sprayed on eggs with equivalent volume of 1000 L/ha Incubation in climatic room at +25°C Assessment of mortality percentage of Halyomorpha halys Nymphs from treated eggs at 6 DAH, 9DAH, 13 DAH and 17 DAH. DAH = Days after hatching Comparative control: Acetamiprid Table 3: Efficacy of Beauveria bassiana CNCM-2961 and Beauveria bassiana CNCM I-2960 on Halyomorpha halys nymphs from treated eggs"}, "Halyomorpha halys Nymphs": {"system": "Halyomorpha halys Nymphs", "test": "Lab trial in Petri dishes, suspension applied on nymphs + spray on beans", "conditions": "0.5 ml/L", "protocol": "Composition used for insect control: Suspension of Beauveria bassiana CNCM I-2960 spores prepared in Tween 80. Total CFU count = 1 x 10^8 CFU/ml Trial method: Lab trial in Petri dishes, 10 replicates, 5 nymphs/replicate Suspension applied on nymphs + spray on beans Incubation in climatic room at +25°C Assessment of mortality percentage of Halyomorpha halys Nymphs at 10 DAA Comparative control: Acetamiprid Table 2: Efficacy of Beauveria bassiana CNCM I-2960 on Halyomorpha halys Nymphs"}, "[2]": {"system": "Dysaphis plantaginea adults", "test": "Lab trial in Petri dishes, leaf disc dipped in suspension", "conditions": "0.14 kg/ha", "protocol": "Composition used for insect control: Suspension of Beauveria bassiana CNCM I-2961 spores prepared in Tween 80. Total CFU count = 1.2 x 10^8 CFU/ml Trial method: Lab trial in Petri dishes, 10 replicates, 5 adults/replicate Leaf disc dipped in prepared suspension of treatment, let dried and set up on agar agar Incubation in climatic room at +21°C, dead adults removed and incubated for sporulation on cadaver: assessment at 17 DAA Assessment of mortality percentage of Dysaphis plantaginea adults at 8 DAA, 10 DAA DAA = Days after application Comparative control: Flonicamid Table 1: Efficacy of Beauveria bassiana CNCM I-2961 on Dysaphis plantaginea adults"}}}
{"smiles": "CC1(C)[C@H](C(=O)O[C@H](C#N)c2cccc(Oc3ccccc3)c2)[C@@H]1/C=C(\\Cl)C(F)(F)F", "note": "(racemic) [Lambda cyhalothrin]", "values": [{"measurement": "Mortality percentage of Bactrocera oleae adults at 10 DAA", "setting": "Bactrocera oleae adults", "value": 100, "unit": "%"}, {"measurement": "Mortality percentage of Empoasca vitis larvae at 7 DAA", "setting": "[1]; 7 DAA", "value": 65, "unit": "%"}, {"measurement": "Mortality percentage of Empoasca vitis larvae at 10 DAA", "setting": "[1]; 10 DAA", "value": 91, "unit": "%"}, {"measurement": "Mortality percentage of Empoasca vitis adults at 7 DAA", "setting": "Empoasca vitis adults; 7 DAA", "value": 83, "unit": "%"}, {"measurement": "Mortality percentage of Empoasca vitis adults at 11 DAA", "setting": "Empoasca vitis adults; 11 DAA", "value": 100, "unit": "%"}]}
{"smiles": "C/C(=N\\C#N)N(C)Cc1ccc(Cl)nc1", "note": "[Acetamiprid]", "values": [{"measurement": "Mortality percentage of Halyomorpha halys nymphs from treated eggs at 6 DAH", "setting": "Halyomorpha halys eggs; 6 DAH", "value": 0, "unit": "%"}, {"measurement": "Mortality percentage of Halyomorpha halys nymphs from treated eggs at 9 DAH", "setting": "Halyomorpha halys eggs; 9 DAH", "value": 7, "unit": "%"}, {"measurement": "Mortality percentage of Halyomorpha halys nymphs from treated eggs at 13 DAH", "setting": "Halyomorpha halys eggs; 13 DAH", "value": 12, "unit": "%"}, {"measurement": "Mortality percentage of Halyomorpha halys nymphs from treated eggs at 17 DAH", "setting": "Halyomorpha halys eggs; 17 DAH", "value": 22, "unit": "%"}, {"measurement": "Mortality percentage of Halyomorpha halys Nymphs at 10 DAA", "setting": "Halyomorpha halys Nymphs", "value": 100, "unit": "%"}]}
{"smiles": "N#CCNC(=O)c1cnccc1C(F)(F)F", "note": "[Flonicamid]", "values": [{"measurement": "Mortality percentage of Dysaphis plantaginea adults at 8 DAA", "setting": "[2]; 8 DAA", "value": 100, "unit": "%"}, {"measurement": "Mortality percentage of Dysaphis plantaginea adults at 10 DAA", "setting": "[2]; 10 DAA", "value": 100, "unit": "%"}]}
